From ChEMBL document CHEMBL4052645, “Discovery of potent and efficacious pyrrolopyridazines as dual JAK1/3 inhibitors” (Bioorg Med Chem Lett, 2017) come the findings set out here.

The source made the active and inactive calls. No cut-off for these calls is given here.

The subject of one data set is Rattus norvegicus. In words: Cardiotoxicity in rat assessed as decrease in mean arterial blood pressure at 200 mg/kg. Type of data set: toxicity, organism-based. As to conditions: in vivo.
The test system of data set [1] is Casein kinase I isoform alpha-like. In words: Inhibition of CK1A2 (unknown origin) assessed as residual activity at 50 nM by Kinomescan method relative to control. As to conditions: Homo sapiens.
Data set [2] is filed under the species Homo sapiens. In words: Inhibition of sodium channel (unknown origin) at 10 uM by patch clamp assay. Background: Patch clamp records ionic current or voltage across a cell membrane.
A short description of data set [3]: Clearance in Sprague-Dawley rat at 2 mg/kg, iv. It is filed as ADME, organism-based. As to conditions: in vivo.
The nature of data set [4]: Permeability from apical side to basolateral side in human Caco2 cells. It is filed as ADME, cell-based. The following applies: Caco-2, read-out: permeability. (Caco-2 cells form a polarised layer with tight junctions and transporters.)
Data set [5] concerns the target Serine/threonine-protein kinase DCLK2 (Homo sapiens) (UniProt Q8N568). The data set is described as follows: Inhibition of wild-type human partial length DCAMKL2 (K273 to V664 residues) expressed in bacterial expression system assessed as residual activity at 50 nM by Kinomescan method relative to control.
Data set [6] concerns the target Rho-associated protein kinase 2 (Homo sapiens, UniProt O75116). The data set is described as follows: Inhibition of Rho-associated protein kinase 2 (unknown origin).
A short description of data set [7]: Cmax in mouse at 10 mg/kg, po after 24 hrs. Type of data set: ADME, organism-based. Also noted: dose 10 mg/kg, route oral. The following applies: in vivo.
In data set [8] the test system is Mitogen-activated protein kinase kinase kinase 12. In words: Inhibition of wild-type human full length DLK (M1 to P859 residues) expressed in mammalian expression system assessed as residual activity at 50 nM by Kinomescan method relative to control.
A short description of data set [9]: Tmax in Sprague-Dawley rat at 10 mg/kg, po. It is filed as ADME, organism-based. The following applies: in vivo.
In data set [10] the target is Testis-specific serine/threonine-protein kinase 1 (Homo sapiens) (UniProt Q9BXA7). The data set is described as follows: Inhibition of wild-type human full length TSSK1B (M1 to Q367 residues) expressed in bacterial expression system assessed as residual activity at 50 nM by Kinomescan method relative to control.
Sequence of Testis-specific serine/threonine-protein kinase 1 (Homo sapiens) (Q9BXA7 whole entry, the tested form may be a part): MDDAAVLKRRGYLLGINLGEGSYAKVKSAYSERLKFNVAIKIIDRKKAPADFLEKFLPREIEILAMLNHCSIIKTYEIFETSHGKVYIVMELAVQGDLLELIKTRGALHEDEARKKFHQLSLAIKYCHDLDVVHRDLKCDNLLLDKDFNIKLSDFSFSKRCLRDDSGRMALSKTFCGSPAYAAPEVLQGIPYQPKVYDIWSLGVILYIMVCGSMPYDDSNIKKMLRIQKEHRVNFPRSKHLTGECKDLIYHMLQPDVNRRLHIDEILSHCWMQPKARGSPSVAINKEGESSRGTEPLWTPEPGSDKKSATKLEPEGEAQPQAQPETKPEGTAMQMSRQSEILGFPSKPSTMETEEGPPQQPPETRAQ
Data set [11] concerns the target Calcium/calmodulin-dependent protein kinase type 1 (Homo sapiens) (UniProt Q14012). In words: Inhibition of wild-type human full length CAMK1A (M1 to L370 residues) expressed in bacterial expression system assessed as residual activity at 50 nM by Kinomescan method relative to control.
For data set [12], the target named is Casein kinase I isoform alpha (Homo sapiens) (UniProt P48729). In words: Inhibition of wild-type human partial length CK1A (M1 to L450 residues) expressed in mammalian expression system assessed as residual activity at 50 nM by Kinomescan method relative to control.
A short description of data set [13]: Half life in Sprague-Dawley rat at 2 mg/kg, iv. Type of data set: ADME, organism-based. As to conditions: in vivo.
The target of data set [14] is Tyrosine-protein kinase FRK (Homo sapiens) (UniProt P42685). The data set is described as follows: Inhibition of wild-type human partial length FRK (A215 to F503 residues) expressed in bacterial expression system assessed as residual activity at 50 nM by Kinomescan method relative to control.
Sequence of Tyrosine-protein kinase FRK (Homo sapiens) (P42685 whole entry, the tested form may be a part): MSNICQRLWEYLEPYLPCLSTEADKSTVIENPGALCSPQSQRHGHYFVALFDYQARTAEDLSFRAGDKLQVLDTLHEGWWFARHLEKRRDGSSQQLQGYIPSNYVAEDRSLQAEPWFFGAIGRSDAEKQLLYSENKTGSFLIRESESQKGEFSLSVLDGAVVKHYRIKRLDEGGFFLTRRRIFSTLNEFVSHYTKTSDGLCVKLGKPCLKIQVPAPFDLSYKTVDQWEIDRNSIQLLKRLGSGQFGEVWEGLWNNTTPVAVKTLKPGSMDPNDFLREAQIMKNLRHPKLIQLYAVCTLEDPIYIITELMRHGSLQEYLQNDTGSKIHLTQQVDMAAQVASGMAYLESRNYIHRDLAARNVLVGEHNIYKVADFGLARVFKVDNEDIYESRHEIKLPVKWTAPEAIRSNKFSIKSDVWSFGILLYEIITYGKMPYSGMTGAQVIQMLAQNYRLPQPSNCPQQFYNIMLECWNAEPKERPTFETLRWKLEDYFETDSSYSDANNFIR
The nature of data set [15]: Protein binding in mouse plasma at 10 mg/kg, po. Type of data set: ADME, organism-based. The following applies: read-out: PPB (converted).
The species named for data set [16] is Homo sapiens. In words: Inhibition of calcium channel (unknown origin) at 10 uM by patch clamp assay.
Data set [17] in a line: Volume of distribution at steady state in Sprague-Dawley rat at 2 mg/kg, iv. As to conditions: in vivo, read-out: Vdss. Type of data set: ADME, organism-based.
Data set [18] is described as follows: Protein binding in rat plasma. It is filed as ADME, cell-free. The following applies: read-out: PPB (converted).
Data set [19] has as its system Phosphatidylinositol 4,5-bisphosphate 3-kinase catalytic subunit alpha isoform (Homo sapiens), P42336 [E545A]. In words: Inhibition of human partial length PIK3CA E545A mutant (R108 to N1068 residues) expressed in mammalian expression system assessed as residual activity at 50 nM by Kinomescan method relative to control.
In another data set the test system is Oryctolagus cuniculus. The data set is described as follows: Cardiotoxicity in rabbit assessed as decrease in mean arterial blood pressure at >3 mg/kg. Type of data set: toxicity, organism-based. The following applies: in vivo.
A short description of data set [20]: Half life in BALB/c mouse at 10 mg/kg, po. As to conditions: in vivo. Type of data set: ADME, organism-based.
Data set [21] concerns the target BDNF/NT-3 growth factors receptor (Homo sapiens) (UniProt Q16620). In words: Inhibition of wild-type human partial length TRKB (Q547 to G838 residues) expressed in mammalian expression system assessed as residual activity at 50 nM by Kinomescan method relative to control.
Data set [22] is described as follows: AUC in BALB/c mouse at 10 mg/kg, po. It is filed as ADME, organism-based. As to conditions: in vivo.
The nature of data set [23]: Oral bioavailability in BALB/c mouse at 10 mg/kg. The following applies: in vivo. Type of data set: ADME, organism-based.
For data set [24], the target named is Ephrin type-A receptor 5 (Homo sapiens) (UniProt P54756). The data set is described as follows: Inhibition of wild-type human partial length EPHA5 (T627 to V930 residues) expressed in bacterial expression system assessed as residual activity at 50 nM by Kinomescan method relative to control.
Sequence of Ephrin type-A receptor 5 (Homo sapiens) (P54756 whole entry, the tested form may be a part): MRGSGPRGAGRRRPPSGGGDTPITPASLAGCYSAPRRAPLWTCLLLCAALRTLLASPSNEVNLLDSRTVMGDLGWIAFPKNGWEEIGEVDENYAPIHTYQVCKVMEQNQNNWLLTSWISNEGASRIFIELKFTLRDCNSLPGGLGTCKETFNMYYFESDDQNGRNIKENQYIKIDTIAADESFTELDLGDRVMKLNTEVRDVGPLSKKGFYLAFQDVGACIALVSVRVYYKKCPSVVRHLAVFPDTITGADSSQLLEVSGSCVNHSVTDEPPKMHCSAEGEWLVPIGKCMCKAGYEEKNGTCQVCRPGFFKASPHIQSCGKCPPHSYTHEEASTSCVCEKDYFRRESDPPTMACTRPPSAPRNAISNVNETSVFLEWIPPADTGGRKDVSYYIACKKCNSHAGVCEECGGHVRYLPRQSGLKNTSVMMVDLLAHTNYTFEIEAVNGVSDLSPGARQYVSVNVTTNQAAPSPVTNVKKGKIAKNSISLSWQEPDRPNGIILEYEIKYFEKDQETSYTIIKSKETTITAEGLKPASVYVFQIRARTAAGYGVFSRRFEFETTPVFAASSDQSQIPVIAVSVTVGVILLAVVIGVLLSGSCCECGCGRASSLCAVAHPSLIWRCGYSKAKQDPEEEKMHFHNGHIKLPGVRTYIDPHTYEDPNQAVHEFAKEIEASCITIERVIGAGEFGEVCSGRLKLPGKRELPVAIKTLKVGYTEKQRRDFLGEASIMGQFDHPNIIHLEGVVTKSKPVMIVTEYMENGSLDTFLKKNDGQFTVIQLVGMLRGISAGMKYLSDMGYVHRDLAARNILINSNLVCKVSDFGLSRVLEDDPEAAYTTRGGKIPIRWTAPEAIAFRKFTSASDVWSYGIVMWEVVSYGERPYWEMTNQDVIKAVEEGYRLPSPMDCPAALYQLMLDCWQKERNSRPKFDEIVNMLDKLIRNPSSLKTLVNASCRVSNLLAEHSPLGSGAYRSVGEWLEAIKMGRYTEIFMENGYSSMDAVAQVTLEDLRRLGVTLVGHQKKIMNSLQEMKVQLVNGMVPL
The target in data set [25] is Serine/threonine-protein kinase PLK4 (Homo sapiens) (UniProt O00444). The data set is described as follows: Inhibition of wild-type human partial length PLK4 (M1 to S273 residues) expressed in mammalian expression system assessed as residual activity at 50 nM by Kinomescan method relative to control.
Data set [26] addresses Voltage-gated inwardly rectifying potassium channel KCNH2 (Homo sapiens, UniProt Q12809). In words: Inhibition of human ERG by flux-based assay.
Data set [27] addresses Dual specificity tyrosine-phosphorylation-regulated kinase 1B (Homo sapiens) (UniProt Q9Y463). In words: Inhibition of wild-type human full length DYRK1B (M1 to S629 residues) expressed in bacterial expression system assessed as residual activity at 50 nM by Kinomescan method relative to control.
For data set [28], the target named is Ephrin type-B receptor 2 (Homo sapiens) (UniProt P29323). The data set is described as follows: Inhibition of wild-type human partial length EPHB2 (I597 to L902 residues) expressed in bacterial expression system assessed as residual activity at 50 nM by Kinomescan method relative to control.
Data set [29] can be described thus: Tmax in BALB/c mouse at 10 mg/kg, po. It is filed as ADME, organism-based. As to conditions: in vivo.
The test system of data set [30] is Ribosomal protein S6 kinase alpha-2. In words: Inhibition of wild-type human partial length C-terminal RSK3 kinase domain 2 (V403 to K700 residues) expressed in bacterial expression system assessed as residual activity at 50 nM by Kinomescan method relative to control.
Data set [31] has as its system Phosphatidylinositol 4,5-bisphosphate 3-kinase catalytic subunit alpha isoform (Homo sapiens), P42336 [H1047L]. In words: Inhibition of human partial length PIK3CA H1047L mutant (R108 to N1068 residues) expressed in mammalian expression system assessed as residual activity at 50 nM by Kinomescan method relative to control.
The subject of data set [32] is Mus musculus. The data set is described as follows: Antiarthritic activity in collagen-induced mouse model assessed as […] at 2 mg/kg, po qd up to 41 days. It is filed as functional, organism-based.
Data set [33] in a line: Drug concentration in mouse at 10 mg/kg, po qd after 24 hrs. It is filed as ADME, organism-based. The following applies: in vivo, read-out: Drug uptake.
For data set [34], the system named is Mus musculus. In words: Toxicity in collagen-induced arthritis mouse model at 50 mg/kg, po qd. As to conditions: in vivo. Type of data set: organism-based.
The species named for data set [35] is Mus musculus. In words: Clearance of compound in mouse relative to hepatic blood flow. Type of data set: ADME. As to conditions: in vivo.
Data set [36] in a line: Oral bioavailability in mouse. It is filed as ADME, organism-based. As to conditions: in vivo.
Data set [37] is filed under the species Mus musculus. In words: animal or person. As to conditions: Balb/c, 24 h.
Data set [38] relates to Mus musculus. In words: Antiarthritic activity in collagen-induced arthritis mouse model assessed as reduction in inflammation at 10 mg/kg, po qd measured up to 41 days. It is filed as functional, organism-based.

In general, inhibition refers to the drop in the measured response relative to a control, in per cent. The clearance is a measure of how efficiently the substance is removed, as volume per time. Read a low clearance as a low capacity for elimination. The IC50 is the concentration that gives 50% inhibition. High values mean weaker potency, low ones greater potency. The Cmax is the peak of the concentration-time curve. For orientation: Tmax means the time at which the peak concentration occurs. Usually half-life stands for the time in which the quantity being followed falls by half. Higher therefore signals slow decline. One may read the AUC as concentration integrated over time. A high value points to high exposure. What is called bioavailability is dose-corrected exposure relative to a reference, in per cent. Read a low bioavailability as poor availability.

Sequence of Phosphatidylinositol 4,5-bisphosphate 3-kinase catalytic subunit alpha isoform (Homo sapiens), P42336 [E545A] (P42336 whole entry E545A, the tested form may be a part, canonical isoform): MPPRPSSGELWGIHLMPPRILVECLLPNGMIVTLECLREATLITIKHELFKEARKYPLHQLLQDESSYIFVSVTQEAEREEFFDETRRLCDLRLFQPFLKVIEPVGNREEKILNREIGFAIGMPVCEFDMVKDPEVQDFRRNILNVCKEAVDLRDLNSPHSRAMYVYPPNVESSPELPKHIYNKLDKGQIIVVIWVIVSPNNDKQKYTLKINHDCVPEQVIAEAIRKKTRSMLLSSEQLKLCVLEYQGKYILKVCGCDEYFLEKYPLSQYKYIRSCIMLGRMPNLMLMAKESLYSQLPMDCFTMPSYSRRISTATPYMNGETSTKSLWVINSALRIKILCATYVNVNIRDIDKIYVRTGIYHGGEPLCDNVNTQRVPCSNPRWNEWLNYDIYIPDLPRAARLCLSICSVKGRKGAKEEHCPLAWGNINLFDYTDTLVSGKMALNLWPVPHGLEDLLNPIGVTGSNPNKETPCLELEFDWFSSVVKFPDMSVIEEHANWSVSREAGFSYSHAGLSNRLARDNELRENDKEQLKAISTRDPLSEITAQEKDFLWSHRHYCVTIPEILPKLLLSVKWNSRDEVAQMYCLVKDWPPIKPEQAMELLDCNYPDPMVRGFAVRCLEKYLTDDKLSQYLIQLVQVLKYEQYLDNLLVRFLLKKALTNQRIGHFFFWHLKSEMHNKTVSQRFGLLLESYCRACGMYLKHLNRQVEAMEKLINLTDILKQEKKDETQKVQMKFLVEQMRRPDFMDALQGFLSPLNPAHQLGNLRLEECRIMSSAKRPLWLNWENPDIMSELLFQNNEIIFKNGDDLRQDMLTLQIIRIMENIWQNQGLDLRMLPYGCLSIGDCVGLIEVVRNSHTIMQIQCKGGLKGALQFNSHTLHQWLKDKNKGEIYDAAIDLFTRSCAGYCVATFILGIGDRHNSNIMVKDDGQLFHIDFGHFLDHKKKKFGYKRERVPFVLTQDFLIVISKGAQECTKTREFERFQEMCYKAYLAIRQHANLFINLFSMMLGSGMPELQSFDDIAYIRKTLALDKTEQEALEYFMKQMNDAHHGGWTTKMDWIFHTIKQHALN
Sequence of BDNF/NT-3 growth factors receptor (Homo sapiens) (Q16620 32-822 limits assumed): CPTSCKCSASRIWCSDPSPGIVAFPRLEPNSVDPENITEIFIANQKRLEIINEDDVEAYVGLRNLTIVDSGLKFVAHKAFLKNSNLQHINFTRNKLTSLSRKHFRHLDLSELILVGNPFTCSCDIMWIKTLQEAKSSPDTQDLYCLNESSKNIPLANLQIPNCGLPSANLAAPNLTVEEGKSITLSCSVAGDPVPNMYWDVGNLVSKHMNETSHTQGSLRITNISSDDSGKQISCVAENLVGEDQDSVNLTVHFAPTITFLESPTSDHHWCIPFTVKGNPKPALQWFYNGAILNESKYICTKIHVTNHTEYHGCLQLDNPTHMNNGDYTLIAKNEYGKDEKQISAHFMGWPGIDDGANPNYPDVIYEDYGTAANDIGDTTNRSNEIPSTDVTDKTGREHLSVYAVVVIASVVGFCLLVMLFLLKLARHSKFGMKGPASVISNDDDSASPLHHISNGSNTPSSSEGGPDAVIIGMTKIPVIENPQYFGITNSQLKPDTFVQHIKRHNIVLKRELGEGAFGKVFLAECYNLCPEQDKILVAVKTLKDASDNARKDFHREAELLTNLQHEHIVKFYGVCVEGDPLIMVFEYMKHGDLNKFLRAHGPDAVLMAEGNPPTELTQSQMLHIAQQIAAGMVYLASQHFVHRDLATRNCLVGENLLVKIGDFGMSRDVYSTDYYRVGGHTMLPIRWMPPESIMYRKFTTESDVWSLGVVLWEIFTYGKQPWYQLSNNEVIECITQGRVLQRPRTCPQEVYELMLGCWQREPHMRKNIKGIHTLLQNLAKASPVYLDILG
Sequence of Phosphatidylinositol 4,5-bisphosphate 3-kinase catalytic subunit alpha isoform (Homo sapiens), P42336 [H1047L] (P42336 whole entry H1047L, the tested form may be a part, canonical isoform): as the sequence (P42336 whole entry E545A, the tested form may be a part, canonical isoform) above, with A545E, H1047L counted along it

Regarding `COc1ccc(-c2cc3c(N[C@@H]4CC[C@](C)(N)C4(C)C)c(C(N)=O)cnn3c2)cn1`, the Activity result in the data set with Rattus norvegicus is “Toxic”; in data set [1], 97%; in [5] it was 100%; in [8], 81%; in data set [10], 100%; in data set [11] it was 100%. Moreover, the Activity is 84% in data set [12]; 100% in data set [14]; 100% in [19]; “Toxic” in the data set with Oryctolagus cuniculus; 100% in [21]; 100% in data set [24]. In addition, the Activity in data set [25] was determined as 100%; in data set [27], 100%; in data set [28] it was 100%; in data set [30], 93%. For the same molecule, the inhibition in the data set listed under Homo sapiens [2] is 71%; in the data set listed under Homo sapiens [16] it was 16%. For the same molecule, the clearance in [3] was 14.1 mL/min/kg. Also, the Papp A→B in data set [4] was 2.6 ×10⁻⁶ cm/s. The figures for the IC50 in data set [6] and in [26] were 43 nM and above 80 µM, respectively. The same molecule gave a Cmax in data set [7] of 1100 nM. In addition, the Tmax in data set [9] was determined as 7.3 h; in [29], 4 h. In addition, the half-life in data set [13] was 588 min; in data set [20], 612 min. Also, the fraction unbound was 0.07 in data set [15] and 0.12 in [18]. Besides, the Vd in data set [17] came out at 11.5 L/kg. In addition, in data set [22], the AUC turned out to be 17.9 µM·h. In addition, the bioavailability in data set [23] amounted to 73%.
Turning to `CC1(C)[C@H](Nc2c(C(N)=O)cnn3cc(-c4ccccc4)cc23)CC[C@]1(C)N`, the Activity is 100% in data set [10]; 95% in data set [31]; 89% in data set [14]; 90% in data set [19]; 80% in [21]; “Toxic” with Mus musculus [34]. In data set [24], the Activity was determined as 100%. Besides, the result in the data set with Mus musculus [32] was inactive. Besides, the concentration at 24 h in [33] is 390 nM. This molecule had a CL in the data set listed under Mus musculus [35] of 32%. This molecule displayed a bioavailability in [36] of 67%. Moreover, the IC50 in the data set filed under Mus musculus [37] was found to be 270 nM. In addition, the outcome with Mus musculus [38] was Active.
